Data reported in US11559512B2, “Composition for prevention, alleviation, and/or treatment of heat illness” (priority 2017, dated 2023).
Entries after “also recorded” stand apart in the source; their conditions may differ.

Experiments:
ABCD3 = ABCD3 expression in HUVECs, antibody staining, confocal microscopy; assay type: cell-based, human; conditions: usual culture and heat stress load (40° C. for 3 days), vs DMSO
Protocol: (§1) Then, six 35-mm dishes were provided, and 2 mL/dish of the solution with the adjusted HUVEC density was inoculated. Auraptene (10 mM) and tangeretin (10 mM) were each added at 2 μL (final concentration: 10 μM)/dish to two dishes. Also, DMSO was added at 2 μL/dish to the remaining 2 dishes to prepare a control.
(§2) The supernatant of the HUVECs cultured in each 35-mm dish was removed, and 2 mL/dish of 4% paraformaldehyde in a phosphate buffer solution was added. The cells were left standing at room temperature for 1 hour.
(§3) The solution was removed, and then, the cells were rinsed twice. 2 mL/dish of 0.5% Triton-X00 (Wako Pure Chemical Industries, Ltd.) in PBS was added, and the cells were left standing at room temperature for 5 minutes. The solution was removed, and then, the cells were rinsed twice. 1 mL/dish of an anti-ABCD3 antibody, an anti-PPARα antibody or an anti-PPARγ antibody, each of which was diluted 150-fold with a FACS buffer, was added, and the cells were left standing at room temperature for 2 hours for reaction.
The solution was removed, and then, the cells were rinsed twice. […] Two drops of Diamond Antifade Mountant with DAPI were added to the cells, and a round glass cover was put on the cells, followed by fluorescence photographing under a confocal laser scanning microscope.

PPARα = PPARα expression in HUVECs, antibody staining, confocal microscopy; assay type: cell-based, human
Protocol: as §1, §2, §3
The solution was removed, and then, the cells were rinsed twice. 1 mL/dish of DyLight 649-labeled anti-Rabbit IgG antibody diluted 500-fold with a FACS buffer was added, and the cells were left standing at room temperature for 1 hour in the dark for reaction. The solution was removed, and then, the cells were rinsed twice. Two drops of Diamond Antifade Mountant with DAPI were added to the cells, and a round glass cover was put on the cells, followed by fluorescence photographing under a confocal laser scanning microscope.

[1] = system: human vascular endothelial cells (HUVECs); assay: DiOC6 / PI staining and flow cytometry of HUVECs under heat stress load; assay type: cell-based; conditions: heat stress load 40° C. for 2 days, flow cytometry, vs DMSO
Protocol: Two days later, the culture solution of each well was removed with an aspirator. […] The supernatant was removed, and then, 5 mL of a culture medium at 37° C. was added to the cells and stirred. After the stirring, DiOC6 (final concentration: 80 nM) was added to each 15-mL tube and reacted at the same temperature as the culture temperature for 30 minutes.
The supernatant was removed, and then, 1 mL of a culture medium was added to the cells, and 2 μL of PI (Sigma-Aldrich Co. LLC) was added. The cells thus supplemented were transferred to a FACS tube and measured in a flow cytometer (BD).
In order to quantify the effects, the cytotoxicity suppressive effects of auraptene (component A) and tangeretin (component T) inhibiting the cell death caused by the load of heat stress were quantified using DiOC6 staining and flow cytometry as described above. The DiOC6 dye is a reagent for measuring mitochondrial activity and is a reagent that can perform measurement based on the attenuation of the amount of fluorescence by cytotoxicity (cell death, etc.).

[2] = system: fat droplets in human vascular endothelial cells (HUVECs); assay: Intracellular fat droplets, BODIPY staining, confocal microscopy; assay type: cell-based
Protocol: as §1, with “Then, nine” for “Then, six”, “to three” for “to two”, “remaining 3” for “remaining 2”
The supernatant of the HUVECs cultured in each 35-mm dish was removed, and 2 mL/dish of 4% paraformaldehyde in a phosphate buffer solution was added. The cells were left standing at room temperature for 1 hour for cell fixation. The solution was removed, and then, the cells were rinsed twice. 1 mL/dish of BODIPY diluted 2000-fold with a FACS buffer was added, and the cells were left standing at room temperature for 30 minutes in the dark for reaction.
The solution was removed, and then, the cells were rinsed twice. Two drops of Diamond Antifade Mountant with DAPI were added to the cells, and a round glass cover was put on the cells, followed by fluorescence photographing under a confocal laser scanning microscope.

[3] = Table 2 summary, HUVECs 40° C., 37° C. as comparative control

## CC(C)=CCC/C(C)=C/COc1ccc2ccc(=O)oc2c1 [auraptene, 7-geranyloxycoumarin]
ABCD3
  change in the expression of ABCD3: change in the expression of ABCD3 was not observed; also recorded: not found
PPARα; HUVECs, 40° C. and 1 day, 10 μM, vs DMSO
  expression of PPARα: increase in the expression of PPARα
PPARα; [3]
  PPARα: Increased
[1]
  number of DiOC6 staining-positive cells (suppression of cytotoxicity, cell death): increased the number of DiOC6 staining-positive cells
[2]; HUVECs, 40° C. for 2 days, 10 μM, BODIPY, vs DMSO
  amount of fat droplets under heat stress load: decrease in the amount of fat droplets; also recorded: decreased the amount of fat droplets
[2]; HUVECs, usual culture (37° C.), 10 μM, vs DMSO
  amount of fat droplets at usual culture: no change in the amount of fat droplets
[2]; [3]
  Amount of fat droplets: Decreased
